The test system of data set [1] is Hep3B (human hepatocarcinoma cell line) xenograft. The conditions noted are these: for Number of Animals (Survived/Total): NU/NU mice, gavage qd 14 days, palbociclib 50 mg/kg; for growth of tumor (tumor weight) versus vehicle, in words / growth of xenograft tumor (tumor volume) versus vehicle, in words: at the test dose; for TV (mm^3) d14: d14, Mean ± SD; for TV (mm^3) d14 / Tumor Weight: n = 7; for Tumor Weight / Tumor Weight Inhibition Rate (%): end of test; for Tumor Weight: Mean ± SD. An excerpt:
42 NU/NU mouse, female, 42-48 days old, weighing 22-26 g.
Hep3B cells were resuscitated and passaged in vitro to the desired number of cells. The cells were counted under a microscope, and diluted with serum-free medium and matrix gel (1:1) to adjust the number of tumor cells to approximately 5×10^7 cells/mL. The cell suspension was placed in an ice bath.
Hep3B cell suspension was withdrawn with a sterile syringe for inoculation into subcutaneous tissue in the axilla of the forelimb of NU/NU mice, with a volume of 0.1 mL/per mice, containing approximately 5.0×10^6 tumor cells, to prepare NU/NU mice Hep3B xenogratf model.
In the vehicle group, the solvents were administered at the same frequency and volume for 14 consecutive days.
4.3 Observation Criteria and Evaluation Criteria • (1) General state observation: all animals were observed once a day during the test period and the abnormalities in various parts of the body and the behavior change situations were recorded. • (2) Body weight: all animals were weighed once before testing and the appropriate body weight of animals were selected for testing. Animals were weighed once a day at a fixed time after initiation of administration for weight monitoring, and body weight statistics were consistent with tumor volume statistics. • (3) Death and moribund: time of death was recorded for dead animals, moribund animals were observed more frequently, and time of death was determined. • (4) Tumor Evaluation
After animal grouping, tumor length and short diameters were measured twice per week. • (1) Tumor volume: V=½×a×b^2 • (2) Relative tumor volume:
[formula] • (3) Relative tumor volume proliferation rate:
[formula] • (4) Tumor growth inhibition rate:
[formula] • Note: V: Tumor volume • a: tumor length; b: tumor width; RTV: relative tumor volume; TVnd: tumor volume on day n; TV0d: tumor volume on day 0; RTVxnd: mean relative tumor volume on day n; TVXn: mean tumor volume on day n in the administrated group; TVX0: mean tumor volume on day 0 in the administrated group; TVMn: mean tumor volume on day n in the solvent (model) group; TVM0: mean tumor volume on day 0 in the solvent (model) group. • (5) Tumor weight
At the end of the test, the animals were sacrificed by cervical dislocation, and a tumor was stripped and weighed.
Data were processed using SPSS 19.0 statistical software. Repeated Measure process analyzed tumor volume changes between groups with multiple measurements over time. Multivariate process compared differences in tumor volume between groups at each measurement. Difference in tumor weight between groups was analyzed by LSD method of One-way ANOVA.

Data set [2] has the same test system. To be noted: for growth of xenograft tumor (tumor volume) versus vehicle, in words / tumor growth (tumor weight) versus vehicle, in words: at the test dose; for TV(mm3) d16: d16, Mean ± SD; for TV(mm3) d16 / Tumor Weight: n = 6; for TV(mm3) d16 / T/C d16 (%) (relative tumor volume proliferation rate) / TGI d16 (%) (tumor growth inhibition rate) / Tumor Weight / Tumor Weight Inhibition Rate (%): palbociclib 50 mg/kg qd; for Tumor Weight / Tumor Weight Inhibition Rate (%): end of test; for Tumor Weight: Mean ± SD. Here is the method:
36 BALB/c Nude mice, female, 18-20 g in body weight.
Compounds of formula (B), sorafenib tosylate, palbociclib.
Sorafenib tosylate/palbociclib: a solution of castor oil, anhydrous ethanol and ultrapure water in a volume ratio of 1:1:6.
In the solvent group, the solvents were administered at the same frequency and volume for 16 consecutive days.
4.3 Observation Criteria and Evaluation Criteria: Same as Example 2

Setting [3] is: compound of formula (B) 5 mg/kg, lenvatinib mesylate 8 mg/kg.
Where [4] appears, read: compound of formula (B) 5 mg/kg, lenvatinib mesylate 8 mg/kg, palbociclib 50 mg/kg qd.
[5] abbreviates: d14, compound of formula (B) 5 mg/kg, lenvatinib mesylate 8 mg/kg, palbociclib 50 mg/kg qd.
Setting [6] is: BALB/c Nude mice, gavage qd 16 days, compound of formula (B) 5 mg/kg, sorafenib tosylate 8 mg/kg, palbociclib 50 mg/kg.
[7] abbreviates: compound of formula (B) 5 mg/kg, sorafenib tosylate 8 mg/kg.
[8] abbreviates: compound of formula (B) 5 mg/kg, sorafenib tosylate 8 mg/kg, listed as palbociclib.
The mark [9] stands for this setting: compound of formula (B) 5 mg/kg, sorafenib tosylate 8 mg/kg, listed as sorafenib tosylate.

Experimental findings from patent publication US20260199327A1, “PHARMACEUTICAL COMBINATION AND PHARMACEUTICAL COMPOSITION FOR TREATING CANCER” (CSPC ZHONGQI PHARMACEUTICAL TECHNOLOGY (SHIJIAZHUANG) CO., …, priority 2022, published 2026) are described below.

Counter-ions that a name gives are not always drawn. Like-named read-outs stand apart in the source and are kept apart here. Marks after values point to notes of the source that are not given here.

`COc1cc2nccc(Oc3ccc(NC(=O)NC4CC4)c(Cl)c3)c2cc1C(N)=O` [Lenvatinib Mesylate, 4-[3-chloro-4-(N′-cyclopropylureido)phenoxy]-7-methoxyquinoline-6-carboxamide mesylate]: in data set [1] (setting [3]), the “Number of Animals (Survived/Total)” value is given as 7/7. Further, in data set [1], the “growth of tumor (tumor weight) versus vehicle, in words” value is listed as “significantly inhibited the growth of the xenograft tumor” and the “growth of xenograft tumor (tumor volume) versus vehicle, in words” value is reported as “significantly inhibited the growth of the xenograft tumor”. Also, in data set [1] (setting [4]), the “TV (mm^3) d14” value is given as 533.1 ± 212.6** mm^3, the “Tumor Weight” value was found to be 0.5600 ± 0.1923 g and the “Tumor Weight Inhibition Rate (%)” value is given as 58.0%. For the same compound, the “TGI d14 (%) (tumor growth inhibition rate)” value in data set [1] (setting [5]) is reported as 57.4%.
As for `CC(=O)c1c(C)c2cnc(Nc3ccc(N4CCNCC4)cn3)nc2n(C2CCCC2)c1=O` [Palbociclib, 6-acetyl-8-cyclopentyl-5-methyl-2-{[5-(piperazin-1-yl)pyridin-2-yl]amino}pyrido[2,3-d]pyrimidin-7 (8H)-one], the “Number of Animals (Survived/Total)” value in data set [1] (setting [3]) is 7/7. Besides, in data set [1], the “growth of tumor (tumor weight) versus vehicle, in words” value is reported as “did not inhibit the growth of tumor” and the “growth of xenograft tumor (tumor volume) versus vehicle, in words” value was “failed to inhibit the growth of xenograft tumor”. In data set [1] (setting [4]), the “TV (mm^3) d14” value amounted to 948.8 ± 361.2 mm^3, the “Tumor Weight” value came out at 1.3047 ± 0.4823 g and the “Tumor Weight Inhibition Rate (%)” value came out at 2.1%. Further, in data set [1] (setting [5]), the “T/C d14 (%) (relative tumor volume proliferation rate)” value is recorded as 95.8% and the “TGI d14 (%) (tumor growth inhibition rate)” value amounted to 11.0%. Besides, in data set [2] (setting [6]), the “Change Rate in Weight (%)” value is −24.7% and the “Number of Animals (Survived/Total)” value is recorded as 6/6. Further, in data set [2], the “growth of xenograft tumor (tumor volume) versus vehicle, in words” value was “failed to inhibit the growth of xenograft tumor” and the “tumor growth (tumor weight) versus vehicle, in words” value was “failed to inhibit tumor growth”. For the same compound, in data set [2] (setting [7]), the “TV(mm3) d16” value was 711.6 ± 313.8 mm3, the “T/C d16 (%) (relative tumor volume proliferation rate)” value was determined as 91.3%, the “TGI d16 (%) (tumor growth inhibition rate)” value was determined as 31.4% and the “Tumor Weight” value is on record as 0.89 ± 0.30 g. Also, in data set [2] (setting [7]), the “Tumor Weight Inhibition Rate (%)” value is given as 19.1%. In data set [2] (setting [8]), the “T/C d16 (%) (relative tumor volume proliferation rate)” value is 75.1%, the “TGI d16 (%) (tumor growth inhibition rate)” value worked out at 44.5% and the “Tumor Weight Inhibition Rate (%)” value turned out to be 46.4%.
As for `CNC(=O)c1cc(Oc2ccc(NC(=O)Nc3ccc(Cl)c(C(F)(F)F)c3)cc2)ccn1.Cc1ccc(S(=O)(=O)O)cc1` [Sorafenib Tosylate, 4-{4-[3-(4-chloro-3-trifluoromethyl-phenyl)-acylurea]-phenoxy}-pyridine-2-carboxylic acid methylamide-4-toluenesulfonate], in data set [2] (setting [6]), the “Change Rate in Weight (%)” value is −17.5%. Also, in data set [2], the “growth of xenograft tumor (tumor volume) versus vehicle, in words” value is given as “failed to inhibit the growth of xenograft tumor” and the “tumor growth (tumor weight) versus vehicle, in words” value is “failed to inhibit tumor growth”. Also, in data set [2] (setting [7]), the “TV(mm3) d16” value worked out at 717.2 ± 222.7 mm3, the “T/C d16 (%) (relative tumor volume proliferation rate)” value is 84.5%, the “TGI d16 (%) (tumor growth inhibition rate)” value came out at 30.9% and the “Tumor Weight” value came out at 0.79 ± 0.23 g. Also, in data set [2] (setting [7]), the “Tumor Weight Inhibition Rate (%)” value is 27.8%. In data set [2] (setting [9]), the “T/C d16 (%) (relative tumor volume proliferation rate)” value is recorded as 91.3%, the “TGI d16 (%) (tumor growth inhibition rate)” value is listed as 31.4% and the “Tumor Weight Inhibition Rate (%)” value was found to be 19.1%.
